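Following 48 hours of exposure in 96-well plates, responses at five concentrations were used to interpolate endpoints linearly. GI50 marks 50% less growth.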 The source made the active and inactive calls. Cut-off read from the data, not from the text of the source: active = GI50 up to about 1.1 µM and inactive = higher.
Tests used:
Experiment in all cases: DTP human tumour cell line panel, 48 h
UACC-62 = test system: UACC-62
SF-539 = test system: SF-539
U-251 = test system: U-251
RPMI-8226 = test system: RPMI-8226
HCT-116 = test system: HCT-116
Hs-578T = test system: Hs-578T
A498 = test system: A498
CAKI-1 = test system: CAKI-1
K562 = test system: K562
SK-MEL-5 = test system: SK-MEL-5
T47D = test system: T47D
SK-OV-3 = test system: SK-OV-3
OVCAR-5 = test system: OVCAR-5
NCI-H522 = test system: NCI-H522
LOX IMVI = test system: LOX IMVI
EKVX = test system: EKVX
NCI-H226 = test system: NCI-H226
UACC-257 = test system: UACC-257
SK-MEL-28 = test system: SK-MEL-28
A549 = test system: A549

SMILES	GI50 (UACC-62)	GI50 (SF-539)	GI50 (U-251)	GI50 (RPMI-8226)	GI50 (HCT-116)	GI50 (Hs-578T)	GI50 (A498)	GI50 (CAKI-1)	GI50 (K562)	GI50 (SK-MEL-5)	GI50 (T47D)	GI50 (SK-OV-3)	GI50 (OVCAR-5)	GI50 (NCI-H522)	GI50 (LOX IMVI)	GI50 (EKVX)	GI50 (NCI-H226)	GI50 (UACC-257)	GI50 (SK-MEL-28)	GI50 (A549)
S=C1NC2=C(COC/C2=C\c2ccccc2Cl)C(c2ccccc2Cl)N1 (stereo not given)	65.3 µM (inactive)	34.9 µM (inactive)	25.1 µM (inactive)	5.26 µM (inactive)	17.5 µM (inactive)	> 100 µM (inactive)	80 µM (inactive)	73.8 µM (inactive)	14.9 µM (inactive)	15.6 µM (inactive)	41.5 µM (inactive)	> 100 µM (inactive)	> 100 µM (inactive)	29.6 µM (inactive)	21.2 µM (inactive)	33.2 µM (inactive)	27.4 µM (inactive)	56 µM (inactive)		
Cc1nc2c(Br)cc(Br)cc2c(=O)n1-c1ccccc1NC1OC(CO)C(O)C(O)C1O (stereo not given)	> 100 µM (inactive)	> 100 µM (inactive)	> 100 µM (inactive)	> 100 µM (inactive)	> 100 µM (inactive)	> 100 µM (inactive)	> 100 µM (inactive)	> 100 µM (inactive)	> 100 µM (inactive)	> 100 µM (inactive)	> 100 µM (inactive)	> 100 µM (inactive)	> 100 µM (inactive)	> 100 µM (inactive)	> 100 µM (inactive)	> 100 µM (inactive)	> 100 µM (inactive)	> 100 µM (inactive)	> 100 µM (inactive)	
CN(C)Cc1cc(/N=N/c2ccc(Cl)c(Cl)c2)ccc1O	5.96 µM (inactive)	18.5 µM (inactive)	11.5 µM (inactive)	14.3 µM (inactive)	14.4 µM (inactive)	6.03 µM (inactive)	11.1 µM (inactive)	12.6 µM (inactive)	2.61 µM (inactive)	12.4 µM (inactive)	7 µM (inactive)			5.41 µM (inactive)	3.4 µM (inactive)	12.6 µM (inactive)	17.9 µM (inactive)	16.8 µM (inactive)	13.7 µM (inactive)	13.9 µM (inactive)
CC[C@@]1(O)C(=O)OCc2c1cc1n(c2=O)Cc2cc3c(OC)cccc3nc2-1	< 0.1 µM (active)	< 0.1 µM (active)		0.0158 µM (active)		12.8 µM (inactive)	0.6 µM (active)		0.171 µM (active)	0.116 µM (active)	0.0194 µM (active)	0.117 µM (active)	0.417 µM (active)	0.145 µM (active)	< 0.1 µM (active)	2.04 µM (inactive)	0.267 µM (active)	0.558 µM (active)		
